Assay results from US10526345B2, “Compounds as GPR119 agonists” (Mankind Pharma Ltd., priority 2016, dated 2020).

Each compound was assayed against T1, hGPR119 (Homo sapiens, UniProt Q8TDV5) (assay: In vitro cyclic AMP assay (Cisbio dynamic 2 HTRF kit) in CHO-hGPR119 cells). Conditions: 1 h, cAMP, compound at 1 μM, 60 min, read-out: Induction (% induction at 1 μM).
T1 construct: expressed in transfected cells; host or cells: CHO
T1 sequence (Q8TDV5 1-335): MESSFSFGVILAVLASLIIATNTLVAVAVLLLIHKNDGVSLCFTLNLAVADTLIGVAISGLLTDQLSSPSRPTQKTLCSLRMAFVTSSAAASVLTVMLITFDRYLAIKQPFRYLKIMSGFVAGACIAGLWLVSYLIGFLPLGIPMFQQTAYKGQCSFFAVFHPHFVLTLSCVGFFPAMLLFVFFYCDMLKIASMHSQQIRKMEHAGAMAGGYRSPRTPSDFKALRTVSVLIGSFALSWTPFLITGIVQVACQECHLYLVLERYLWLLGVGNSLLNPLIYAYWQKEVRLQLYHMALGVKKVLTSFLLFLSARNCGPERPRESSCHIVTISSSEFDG
Assay type: cell-based
Description: cAMP measurements were done using Cisbio dynamic 2 HTRF kit according to the manufacturer's protocol. Briefly, CHO-hGPR119 cells were plated at a cell density of 5000 cells/well/5 μl into a white small volume 384 well plate. The final concentrations of IBMX and DMSO used were 1 mM and 0.5% respectively. Cells were treated with various concentrations of the test compound for 60 min at room temperature. Cells were lysed by buffer containing Anti-cAMP antibody and d2-cAMP reagents and incubated for 1 hour at room temperature. HTRF was measured at 337 nm excitation and emission wavelengths of 665 nm and 620 nm on a microplate reader (Flurostar, BMG Labtech). Graphpad prism software was utilized for EC50 determinations.

SMILES	activation at 1 µM
CC(C)c1noc(N2CCC(C(C)Oc3nc4ccc(-c5ccc(S(C)(=O)=O)nc5)nc4s3)CC2)n1 (stereo not drawn) [Compound 1069, 3-isopropyl-5-(4-(1-((5-(6-(methylsulfonyl)pyridin-3-yl)thiazolo[5,4-b]pyridin-2-yl)oxy)ethyl)piperidin-1-yl)-1,2,4-oxadiazole]	80%
CC(C)c1noc(N2CCC([C@@H](C)Oc3nc4ccc(-c5ccncc5)nc4s3)CC2)n1 [Compound 1070, (R)-3-isopropyl-5-(4-(1-((5-(pyridin-4-yl)thiazolo[5,4-b]pyridin-2-yl)oxy)ethyl)piperidin-1-yl)-1,2,4-oxadiazole]	83%
CNS(=O)(=O)c1ccc(-c2ccc3nc(N4CCC(c5nc(C(C)C)no5)CC4)sc3n2)cc1 [Compound 1072, 4-(2-(4-(3-isopropyl-1,2,4-oxadiazol-5-yl)piperidin-1-yl)thiazolo[5,4-b]pyridin-5-yl)-N-methylbenzenesulfonamide]	17%
COCCNS(=O)(=O)c1ccc(-c2ccc3nc(N4CCC(c5nc(C(C)C)no5)CC4)sc3n2)cc1 [Compound 1073, 4-(2-(4-(3-isopropyl-1,2,4-oxadiazol-5-yl)piperidin-1-yl)thiazolo[5,4-b]pyridin-5-yl)-N-(2-methoxyethyl)benzenesulphonamide]	29%
CC(C)c1noc(N2CCC(C(C)Oc3nc4ccc(-c5ccc(NS(C)(=O)=O)cc5)nc4s3)CC2)n1 (stereo not drawn) [Compound 1074, N-(4-(2-(1-(1-(3-isopropyl-1,2,4-oxadiazol-5-yl)piperidin-4-yl)ethoxy)thiazolo[5,4-b]pyridin-5-yl)phenyl)methanesulfonamide]	39%
CC(C)c1noc(C2CCN(c3nc4ccc(-c5ccncc5)nc4s3)CC2)n1 [Compound 1077, 3-isopropyl-5-(1-(5-(pyridin-4-yl)thiazolo[5,4-b]pyridin-2-yl)piperidin-4-yl)-1,2,4-oxadiazole]	12%
COCCS(=O)(=O)c1ccc(-c2ccc3nc(N4CCC(c5nc(C(C)C)no5)CC4)sc3n2)cc1 [Compound 1078, 3-isopropyl-5-(1-(5-(4-((2-methoxyethyl)sulfonyl)phenyl)thiazolo[5,4-b]pyridin-2-yl)piperidin-4-yl)-1,2,4-oxadiazole]	24%
CC(C)c1noc(N2CCC(C(C)Oc3nc4ccc(-c5ccc(-n6cnnn6)cc5)nc4s3)CC2)n1 (stereo not drawn) [Compound 1079, 5-(4-(1-((5-(4-(1H-tetrazol-1-yl)phenyl)thiazolo[5,4-b]pyridin-2-yl)oxy)ethyl)piperidin-1-yl)-3-isopropyl-1,2,4-oxadiazole]	50%
CC(C)c1noc(C2CCN(c3nc4ccc(-c5ccc(S(C)(=O)=O)nc5)nc4s3)CC2)n1 [Compound 1080, 3-isopropyl-5-(1-(5-(6-(methylsulfonyl)pyridin-3-yl)thiazolo[5,4-b]pyridin-2-yl)piperidin-4-yl)-1,2,4-oxadiazole]	40%
CC(C)c1noc(N2CCC(C(C)Oc3nc4ccc(-c5ccnc(F)c5)nc4s3)CC2)n1 (stereo not drawn) [Compound 1081, 5-(4-(1-((5-(2-fluoropyridin-4-yl)thiazolo[5,4-b]pyridin-2-yl)oxy)ethyl)piperidin-1-yl)-3-isopropyl-1,2,4-oxadiazole]	82%
CC(C)c1noc(N2CCC(COc3nc4ccc(-c5ccncc5)nc4s3)CC2)n1 [Compound 1083, 3-isopropyl-5-(4-(((5-(pyridin-4-yl)thiazolo[5,4-b]pyridin-2-yl)oxy)methyl)piperidin-1-yl)-1,2,4-oxadiazole]	14%
CC(C)c1noc(N2CCC(COc3nc4ccc(-c5ccncc5F)nc4s3)CC2)n1 [Compound 1084, 5-(4-(((5-(3-fluoropyridin-4-yl)thiazolo[5,4-b]pyridin-2-yl)oxy)methyl)piperidin-1-yl)-3-isopropyl-1,2,4-oxadiazole]	12%
CC(C)c1noc(N2CCC(COc3nc4ccc(-c5ccnc(F)c5)nc4s3)CC2)n1 [Compound 1086, 5-(4-(((5-(2-fluoropyridin-4-yl)thiazolo[5,4-b]pyridin-2-yl)oxy)methyl)piperidin-1-yl)-3-isopropyl-1,2,4-oxadiazole]	2%
CCc1ccc(N2CCC(C(C)Oc3nc4ccc(-c5ccc(S(C)(=O)=O)cc5)nc4s3)CC2)nc1 (stereo not drawn) [Compound 1087, 2-(1-(1-(5-ethylpyridin-2-yl)piperidine-4-yl)ethoxy)-5-(4-(methylsulfonyl)phenyl)thiazolo[5,4-b]pyridine]	74%
C=Cc1ccc(N2CCC(C(C)Oc3nc4ccc(-c5ccc(S(C)(=O)=O)cc5)nc4s3)CC2)nc1 (stereo not drawn) [Compound 1088, 5-(4-(methylsulfonyl)phenyl)-2-(1-(1-(5-vinylpyridin-2-yl)piperidin-4-yl)ethoxy)thiazolo[5,4-b]pyridine]	60%
CCCc1cnc(N2CCC([C@@H](C)Oc3nc4ccc(-c5ccc(S(C)(=O)=O)cc5)nc4s3)CC2)nc1 [Compound 1090, (R)-5-(4-(methylsulfonyl)phenyl)-2-(1-(1-(5-propylpyrimidin-2-yl)piperidin-4-yl)ethoxy)thiazolo[5,4-b]pyridine]	54%
CC(C)c1noc(N2CCC([C@H](C)Oc3nc4ccc(-c5ccncc5)nc4s3)CC2)n1 [Compound 1092, (S)-3-isopropyl-5-(4-(1-((5-(pyridin-4-yl)thiazolo[5,4-b]pyridin-2-yl)oxy)ethyl)piperidin-1-yl)-1,2,4-oxadiazole]	9%
CC(C)c1noc(N2CCC([C@H](C)Oc3nc4ccc(-c5ccnc(F)c5)nc4s3)CC2)n1 [Compound 1093, (S)-5-(4-(1-((5-(2-fluoropyridin-4-yl)thiazolo[5,4-b]pyridin-2-yl)oxy)ethyl)piperidin-1-yl)-3-isopropyl-1,2,4-oxadiazole]	82%
CC(C)c1noc(N2CCC(C(Oc3nc4ccc(-c5ccc(S(C)(=O)=O)cc5)nc4s3)C(F)(F)F)CC2)n1 (stereo not drawn) [Compound 1094, 3-isopropyl-5-(4-(2,2,2-trifluoro-1-((5-(4-(methysulfonyl)phenyl)thiazolo[5,4-b]pyridin-2-yl)oxy)ethyl)piperidin-1-yl)-1,2,4-oxadiazole]	24%
CC(C)c1noc(N2CCC([C@H](C)Oc3nc4ccc(-c5ccc(S(=O)(=O)C6CC6)cc5)nc4s3)CC2)n1 [Compound 1095, (S)-5-(4-(1-((5-(4-(cyclopropylsulfonyl)phenyl)thiazolo[5,4-b]pyridin-2-yl)oxy)ethyl)piperidin-1-yl)-3-isopropyl-1,2,4-oxadiazole]	84%
CC(C)c1nnc(N2CCC(C(C)Oc3nc4ccc(-c5ccc(S(C)(=O)=O)cc5)nc4s3)CC2)o1 (stereo not drawn) [Compound 1097, 2-isopropyl-5-(4-(1-((5-(4-(methylsulfonyl)phenyl)thiazolo[5,4-b]pyridin-2-yl)oxy)ethyl)piperidin-1-yl)-1,3,4-oxadiazole]	34%
CC(C)c1noc(N2CCC(C(C)Oc3nc4ccc(-c5cc[n+]([O-])cc5)nc4s3)CC2)n1 (stereo not drawn) [Compound 1098, 4-(2-(1-(1-(3-isopropyl-1,2,4-oxadiazol-5-yl)piperidin-4-yl)ethoxy)thiazolo[5,4-b]pyridin-5-yl)pyridine 1-oxide]	48%
CC(C)c1noc(N2CCC(C(C)Oc3nc4ccc(-c5ccc(S(C)(=O)=O)c(F)c5)nc4s3)CC2)n1 (stereo not drawn) [Compound 1100, 5-(4-(1-((5-(3-fluoro-4-(methylsulfonyl)phenyl)thiazolo[5,4-b]pyridin-2-yl)oxy)ethyl)piperidin-1-yl)-3-isopropyl-1,2,4-oxadiazole]	65%
CC(C)c1noc(N2CCC(C(Oc3nc4ccc(-c5ccc(S(C)(=O)=O)nc5)nc4s3)C(F)(F)F)CC2)n1 (stereo not drawn) [Compound 1102, 3-isopropyl-5-(4-(2,2,2-trifluoro-1-((5-(6-(methylsulfonyl)pyridin-3-yl)thiazolo[5,4-b]pyridin-2-yl)oxy)ethyl)piperidin-1-yl)-1,2,4-oxadiazole]	72%
CC(C)c1noc(N2CCC(C(Oc3nc4ccc(-c5ccnc(F)c5)nc4s3)C(F)(F)F)CC2)n1 (stereo not drawn) [Compound 1103, 3-isopropyl-5-(4-(2,2,2-trifluoro-1-((5-(2-fluoropyridin-4-yl)thiazolo[5,4-b]pyridin-2-yl)oxy)ethyl)piperidin-1-yl)-1,2,4-oxadiazole]	63%

Same assay, conditions: cAMP

SMILES	EC50
CC(C)c1noc(N2CCC([C@@H](C)Oc3nc4ccc(-c5ccncc5)nc4s3)CC2)n1 [Compound 1070, (R)-3-isopropyl-5-(4-(1-((5-(pyridin-4-yl)thiazolo[5,4-b]pyridin-2-yl)oxy)ethyl)piperidin-1-yl)-1,2,4-oxadiazole]	50 to 100 nM
CC(C)c1noc(N2CCC([C@H](C)Oc3nc4ccc(-c5ccnc(F)c5)nc4s3)CC2)n1 [Compound 1093, (S)-5-(4-(1-((5-(2-fluoropyridin-4-yl)thiazolo[5,4-b]pyridin-2-yl)oxy)ethyl)piperidin-1-yl)-3-isopropyl-1,2,4-oxadiazole]	< 25 nM
CC(C)c1noc(N2CCC([C@H](C)Oc3nc4ccc(-c5ccncc5F)nc4s3)CC2)n1 [Compound 1096, (S)-5-(4-(1-((5-(3-fluoropyridin-4-yl)thiazolo[5,4-b]pyridin-2-yl)oxy)ethyl)piperidin-1-yl)-3-isopropyl-1,2,4-oxadiazole]	50 to 100 nM

Same assay, conditions: cAMP, compound at 1 μM, 60 min

SMILES	Induction (% induction at 1 μM)
CC(C)c1noc(N2CCC([C@H](C)Oc3nc4ccc(-c5ccncc5F)nc4s3)CC2)n1 [Compound 1076, (S)-5-(4-(1-((5-(3-fluoropyridin-4-yl)thiazolo[5,4-b]pyridin-2-yl)oxy)ethyl)piperidin-1-yl)-3-isopropyl-1,2,4-oxadiazole]	35%
CC(C)c1noc(N2CCC([C@H](C)Oc3nc4ccc(-c5ccncc5F)nc4s3)CC2)n1 [Compound 1096, (S)-5-(4-(1-((5-(3-fluoropyridin-4-yl)thiazolo[5,4-b]pyridin-2-yl)oxy)ethyl)piperidin-1-yl)-3-isopropyl-1,2,4-oxadiazole]	66%
